Experimental data: patent US5124253A (Medisense, Inc., priority 1988, dated 1992)
Several values for one entry are separate records, joined by “and”; a condition that tells them apart may be missing. Equal entries are not always repeated.

Columns and labels:
[1] = cyclic voltammetry of substrate and product; type: physicochemical
From the text: Typically, in the test element, the enzyme and the substrate are in separate carbon-based layers. The respective carbon mixtures are applied to a conductive track of a support, for example in the close proximity of a reference electrode mixture connected to a second track. In this way, a miniaturized sensor is produced which is capable of working with a small sample of blood bridging the electrode areas. The mixtures are suitably applied by screen printing. Suitable enzymes and suitable substrates can be determined by routine experimentation. Bovine liver alkaline phosphatase is the preferred enzyme, and p-aminophenyl phosphate is the preferred substrate. Other candidate substrates include, for example naphthyl phosphate, and 4-ferrocenylaminophenyl phosphate. […] Furthermore the electrochemistry of p-aminophenol is in a potential region where there would be minimal interference from endogenous blood components.
Cyclic voltammograms of p-aminophenyl phosphate before and after incubation with alkaline phosphatase are shown in FIGS. 3 and 4, the lower voltammogram corresponding to post-incubation.

[2] = cited from earlier work
[3] = system: bovine liver alkaline phosphatase; settings: particularly isozyme from bovine liver; cited from earlier work

| SMILES | E°' of reversible wave [1] | levels encountered in cases of toxicity [2] | inhibition of alkaline phosphatase isozymes [3] |
| --- | --- | --- | --- |
| Nc1ccc(O)cc1 [p-aminophenol] | about -65 mV | – | – |
| Cn1c(=O)c2[nH]cnc2n(C)c1=O [theophylline] | – | ≤ 60 μg/ml and ≤ 330 μM | very potent inhibitor |
